In patent US8445240B2, “Termite enzymes and uses thereof for in vitro conversion of lignin-containing materials to fermentable products” (University of Florida Research Foundation, Inc., priority 2009, dated 2013):
Values joined by “and” are separate entries in the source; they are usually repeats but may differ in a detail not shown here. Equal entries are not always repeated. Where two headings read alike, the source gives them in different places.

Legend:
[1] = biological target: T1, recombinant RfBGluc-1 β-glucosidase (Reticulitermes flavipes, UniProt D9ILU1); test: Activity of recombinant RfBGluc-1 towards natural substrates, endpoint glucose detection assay; assay type: biochemical
T1 sequence (D9ILU1 18-495): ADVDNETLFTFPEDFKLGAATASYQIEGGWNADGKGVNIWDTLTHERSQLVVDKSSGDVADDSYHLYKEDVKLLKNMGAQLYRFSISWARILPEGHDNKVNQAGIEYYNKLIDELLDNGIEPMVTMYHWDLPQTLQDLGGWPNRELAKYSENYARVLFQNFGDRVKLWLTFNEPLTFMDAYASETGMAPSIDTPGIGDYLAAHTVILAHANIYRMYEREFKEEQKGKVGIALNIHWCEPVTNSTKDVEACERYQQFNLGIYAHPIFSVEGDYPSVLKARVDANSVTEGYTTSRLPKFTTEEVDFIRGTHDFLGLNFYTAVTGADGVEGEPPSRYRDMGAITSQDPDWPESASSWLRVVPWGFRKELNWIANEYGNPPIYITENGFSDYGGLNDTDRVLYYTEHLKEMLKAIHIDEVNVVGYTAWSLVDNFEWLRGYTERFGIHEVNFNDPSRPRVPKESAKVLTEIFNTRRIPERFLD
Protocol: Natural carbohydrate substrates (Table 2) were tested in endpoint assays in which color development was enabled using 439-90901 glucose-mutarose detection reagent (Wako Chemical; Richmond, Va.). Assays were conducted in 125 μL for 5 min at room temperature as described above and stopped with the addition of 125 μL glucose detection reagent. After 1 min, the absorbance was read at 505 nm.

[2] = biological target: T1, recombinant RfBGluc-1 β-glucosidase; test: Activity of recombinant RfBGluc-1 towards synthetic nitrophenol substrates, kinetic microplate assay; assay type: biochemical; settings: percent activity rankings based on Vmax; pNP-βD-Glucopyranoside = 100
Protocol: All initial characterization assays took place in 0.1 M sodium acetate buffer (pH 6) using 2 μL of recombinant enzyme preparation (=1.58 μg protein per assay) in a total reaction volume of 250 μL. Synthetic p-nitrophenol substrates (Table 1) were tested in direct kinetic assays using a microplate reader. Reactions were initiated by adding 248 μL assay buffer to 2 μL protein. Assays were read at 420 nm every 20 sec for 5 min to yield mean velocity data in mOD/min. Specific activity was determined with the p-nitrophenol extinction coefficient of 0.6605 mM^−1 cm^−1. All results were averaged from three independent replicates, each conducted in triplicate.

[3] = biological target: RfLacA (Reticulitermes flavipes, UniProt D0E8H0); test: RfLacA substrate specificity and kinetic parameters
Sequence of RfLacA (D0E8H0 entry or part of it): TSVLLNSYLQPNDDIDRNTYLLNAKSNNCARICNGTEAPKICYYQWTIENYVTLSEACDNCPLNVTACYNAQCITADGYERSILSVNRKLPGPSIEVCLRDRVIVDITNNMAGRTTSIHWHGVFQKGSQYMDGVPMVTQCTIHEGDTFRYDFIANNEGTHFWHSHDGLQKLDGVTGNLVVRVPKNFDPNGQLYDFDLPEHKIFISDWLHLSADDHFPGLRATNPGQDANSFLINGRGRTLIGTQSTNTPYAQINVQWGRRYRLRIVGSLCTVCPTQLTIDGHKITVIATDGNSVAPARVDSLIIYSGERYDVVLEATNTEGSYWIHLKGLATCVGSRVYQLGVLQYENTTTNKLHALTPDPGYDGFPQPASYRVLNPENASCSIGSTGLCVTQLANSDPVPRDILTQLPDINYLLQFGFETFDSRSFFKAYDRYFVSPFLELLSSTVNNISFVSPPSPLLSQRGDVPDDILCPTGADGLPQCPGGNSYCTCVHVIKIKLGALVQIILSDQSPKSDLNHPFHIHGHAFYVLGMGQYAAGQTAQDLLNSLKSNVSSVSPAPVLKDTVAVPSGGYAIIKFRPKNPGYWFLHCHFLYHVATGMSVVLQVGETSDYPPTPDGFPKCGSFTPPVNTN

[4] = tested on: Cell-1; settings: for effect on Cell-1 temperature stability: pre-incubation at 60° C. and 70° C., 0-60 min
Protocol: Thermal stability tests were conducted using 1.5% CMC in 100 mM sodium phosphate at the optimal pH of 7. Temperature-cofactor studies were performed using 1.5% CMC dissolved in 100 mM sodium phosphate (pH 7) alone, plus 4 mM EDTA (final concentration), or plus 10 mM calcium chloride (final concentration). Pre-incubations took place for 0-5 days at 25° C. or 0-60 min at 60° C. or 70° C.; reactions were terminated by the combination of adding stop solution and boiling for 10 min, and then assays were read at 25° C.
Calcium as a cofactor in β-1,4-endoglucanase Cell-1 hydrolytic activity and temperature stability: The effects of calcium on recombinant Cell-1 activity were investigated using calcium chloride as a calcium source and EDTA as a potential calcium chelator.

[5] = Recombinant Cell-3 exoglucanase activity in unpurified form; assay type: biochemical; settings: for activity toward pNPC relative to uninfected control larvae: homogenates of infected larvae
Text: Recombinant Cell-3 characterization: The recombinant Cell-3 protein (nucleotide sequence SEQ ID NO.: 3; amino acid sequence SEQ ID NO.: 4) was investigated in unpurified form. […] Other experiments investigating activity in crude homogenates over time and after repeated freeze-thaw cycles further verified reduced Cell-3 stability.

[6] = Characterisation of recombinant RfLacA and RfLacB isoforms; assay type: biochemical
[7] = RfLacA, 1 mM substrate, hydroquinone = 100

Molecule: OCc1ccccc1O[C@@H]1O[C@H](CO)[C@@H](O)[C@H](O)[C@H]1O [Salicin]
- Activity (%) [1]: 44%

Molecule: O=[N+]([O-])c1ccccc1O[C@@H]1OC[C@@H](O)[C@H](O)[C@H]1O [oNP-βD-Xylopyranoside]
- Activity (%) [2]: 38%

Molecule: Oc1ccccc1O [Pyrocatechol]
- Relative Activity (%) [3]: 27.65%
- Optimal pH ([3]; RfLacA, per substrate): 7.5
- Specific Activity at 1 mM [S] ([3]; RfLacA, 1 mM substrate): 2.315 nmol·min/mg

Molecule: OC[C@H]1O[C@@H](O[C@H]2[C@H](O)[C@@H](CO)OC(O)[C@@H]2O)[C@H](O)[C@@H](O)[C@@H]1O (stereo partly shown) [Laminaribose]
- Activity (%) [1]: 34%

Molecule: Oc1cccc(O)c1O [Pyrogallol]
- Optimal pH ([3]; RfLacA, per substrate): 7
- Specific Activity at 1 mM [S] ([3]; RfLacA, 1 mM substrate): 1.482 nmol·min/mg
- Relative Activity (%) [3, 7]: 17.70%

Molecule: O=[N+]([O-])c1ccc(O[C@@H]2O[C@H](CO)[C@@H](O[C@@H]3O[C@H](CO)[C@@H](O[C@@H]4O[C@H](CO)[C@@H](O[C@@H]5O[C@H](CO)[C@@H](O)[C@H](O)[C@H]5O)[C@H](O)[C@H]4O)[C@H](O)[C@H]3O)[C@H](O)[C@H]2O)cc1 [pNP-βD-Cellotetraoside, p-nitrophenyl-beta-D-cellotetraoside]
- Activity (%) [2]: 73%

Molecule: [Ca+2].[Cl-].[Cl-] [calcium chloride]
- effect on Cell-1 CMC endoglucanase activity ([4]; incubations over a 5-day period at about 25° C.): slightly enhanced
- effect on Cell-1 temperature stability [4]: stabilized/extended CMC hydrolysis activity over time
- effect on Cell-1 temperature stability ([4]; listed as calcium): improves Cell-1 temperature stability

Molecule: Oc1ccc(O)cc1 [Hydroquinone]
- Optimal pH [3]: 7
- Relative Activity (%) [3]: 100.00%
- Specific Activity at 1 mM [S] [3]: 8.373 nmol·min/mg
- Apparent Vmax ([3]; RfLacA, footnote: maximal specific activities in nmol/min/mg): 0.824 μm min^−1

Molecule: NCCC(=O)NCCc1ccc(O)c(O)c1 [NBAD]
- Specific Activity at 1 mM [S] ([3]; RfLacA, 1 mM substrate): 0.190 nmol·min/mg
- Relative Activity (%) [3, 7]: 2.27%

Molecule: O=[N+]([O-])c1ccc(O[C@@H]2O[C@H](CO)[C@@H](O[C@@H]3O[C@H](CO)[C@@H](O[C@@H]4O[C@H](CO)[C@@H](O)[C@H](O)[C@H]4O)[C@H](O)[C@H]3O)[C@H](O)[C@H]2O)cc1 [pNP-βD-Cellotrioside, p-nitrophenyl-beta-D-cellotrioside]
- Activity (%) [2]: 98%

Molecule: O=[N+]([O-])c1ccc(O[C@@H]2O[C@H](CO)[C@@H](O)[C@H](O)[C@H]2O)cc1 [pNP-βD-Glucopyranoside, p-nitrophenyl-beta-D-glucopyranoside]
- Activity (%) [2]: 100%

Molecule: OC[C@H]1O[C@@](CO)(O[C@H]2O[C@H](CO)[C@@H](O)[C@H](O)[C@H]2O)[C@@H](O)[C@@H]1O [Sucrose]
- Activity (%) [1]: 0%

Molecule: O=[N+]([O-])c1ccc(O[C@@H]2O[C@H](CO)[C@@H](O[C@@H]3O[C@H](CO)[C@@H](O)[C@H](O)[C@H]3O)[C@H](O)[C@H]2O)cc1 [pNP-βD-Cellobioside, p-nitrophenyl-beta-D-cellobioside]
- Activity (%) [2]: 60%

Molecule: Cellobiose
- Activity (%) ([1]; percent activity rankings based on Vmax, cellobiose = 100): 100%

Molecule: C[C@H]1O[C@@H](Oc2ccc([N+](=O)[O-])cc2)[C@H](O)[C@@H](O)[C@H]1O [pNP-βD-Fucopyranoside]
- Activity (%) [2]: 55%

Molecule: O=C(O)[C@H]1O[C@@H](Oc2ccc([N+](=O)[O-])cc2)[C@H](O)[C@@H](O)[C@@H]1O [pNP-βD-Glucuronide]
- Activity (%) [2]: 0%

Molecule: COc1cc(/C=C/C(=O)O)cc(OC)c1O [Sinapinic Acid]
- Relative Activity (%) [3]: 40.40%
- Optimal pH ([3]; RfLacA, per substrate): 7.5
- Specific Activity at 1 mM [S] ([3]; RfLacA, 1 mM substrate): 3.383 nmol·min/mg

Molecule: COc1cccc(OC)c1O [2,6-DMP, 2,6-dimethoxyphenol]
- Optimal pH ([3]; RfLacA, per substrate): 7.5
- Specific Activity at 1 mM [S] ([3]; RfLacA, 1 mM substrate): 2.146 nmol·min/mg
- Relative Activity (%) [3, 7]: 25.63%

Molecule: O=[N+]([O-])c1ccc(O[C@@H]2OC[C@@H](O)[C@H](O)[C@H]2O)cc1 [pNP-βD-Xylopyranoside]
- Activity (%) [2]: 0%

Molecule: O=[N+]([O-])c1ccccc1O[C@@H]1O[C@H](CO)[C@@H](O)[C@H](O)[C@@H]1O [oNP-βD-Mannopyranoside]
- Activity (%) [2]: 0%

Molecule: O=[N+]([O-])c1ccc(O[C@H]2O[C@H](CO)[C@H](O)[C@H](O)[C@H]2O)cc1 [pNP-αD-Galactopyranoside]
- Activity (%) [2]: 0%

Molecule: O=[N+]([O-])c1ccccc1O[C@@H]1O[C@H](CO)[C@@H](O)[C@H](O)[C@H]1O [oNP-βD-Glucopyranoside]
- Activity (%) [2]: 18%

Molecule: N[C@@H](Cc1ccc(O)c(O)c1)C(=O)O [L-DOPA]
- Optimal pH ([3]; RfLacA, per substrate): 6.0 and 7.5
- Specific Activity at 1 mM [S] ([3]; RfLacA, 1 mM substrate): 0.676 nmol·min/mg
- Relative Activity (%) [3, 7]: 8.07%

Molecule: O=[N+]([O-])c1cccc(O[C@H]2O[C@H](CO)[C@H](O)[C@H](O)[C@H]2O)c1 [mNP-αD-Galactopyranoside]
- Activity (%) [2]: 0%

Molecule: CC(=O)NCCc1ccc(O)c(O)c1 [NADA]
- Relative Activity (%) [3]: 9.08%
- Specific Activity at 1 mM [S] ([3]; RfLacA, 1 mM substrate): 0.760 nmol·min/mg

Molecule: O=[N+]([O-])c1ccc(O[C@H]2OC[C@H](O)[C@H](O)[C@H]2O)cc1 [pNP-βL-Arabinopyranoside]
- Activity (%) [2]: 0%

Molecule: O=[N+]([O-])c1ccc(O[C@@H]2O[C@H](CO)[C@H](O)[C@H](O)[C@H]2O)cc1 [pNP-βD-Galactopyranoside]
- Activity (%) [2]: 0%

B1: Cell-3: recombinant exoglucanase, amino acid sequence SEQ ID NO.: 4, investigated in unpurified form (protein)
chain: MVLCILLQWMQIGGKQKYPAFKPGAKYGRGYCDGQCPHDMKVSSGRANVDGWKPQDNDENSGNGKLGTCCWEMDIWEGNLVSQAYTVHAGSKSGQYECTGTQCGDTDSGERFKGTCDKDGCDFASYRWGATDYYGPGKTVDTKQPMTVVTQFIGDPLTEIKRVYVQGGKVINNSKTSNLGSVYDSLTEAFCDDTKQVTGDTNDFKAKGGMSGFSKNLDTPQVLVMSLWDDHTANMLWLDSTYPTDSTKPGAARGTCAVTSGDPKDVESKQANSQVVYSDIKFGPINSTYKAN
modifications: Reticulitermes flavipes; amino acid sequence exoglucanase (Cell-3)
- activity toward pNPC relative to uninfected control larvae [5]: significantly higher activity
- activity toward pNPC relative to uninfected control larvae ([5]; listed as recombinant Cell-3): higher exoglucanase (cellulase) activity than do uninfected homogenates
- stability of recombinant protein ([5]; pNPC activity in filtrates, over time and after freeze-thaw cycles): reduced stability

B2: RfLacB: recombinant R. flavipes gut laccase isoform 2, clone Lac12, SEQ ID NO.: 12 (protein)
chain: VYRSDAYIMLPCVLLACAIGVASATSVLLNSYLQPNDDIDRNTYLLNAKSNNCARICNGTEAPKICYYQWTIENYVTLSEACDNCPLNVTACYNAQCITADGYERSILSVNRKLPGPSIEVCLRDRVIVDITNNMAGRTTSIHWHGVFQKGSQYMDGVPMVTQCTIHEGDTLRYDFIANNEGTHFWHSHDGLQKLDGVTGNLVVRVPKNFDPNGQLYDFDLPEHKIFISDWLHLSADDHFPGLRATNPGQDANSFLINGRGRTLIGTQSTNTPYAQINVQWGRRYRLRIVGSLCTVCPTQLTIDGHKITVIATDGNSVAPARVDSLIIYSGERYDVVLEATNTEGSYWIHLKGLVTCVGSRVYQLGVLQYENTTTNKLHALTPDPGYDGFPQPASYRVLNPENASCSIGSTGLCVTQLANSDPVPRDILTQLPDINYLLQFGFKIFDSRSFFKAYDRYFVSPFLDLVSSTVNNISSVSPPSPLLSQRGDVPDDVLCPTGADGLPQCPGGNSYCTCVHVIKIKLGALVQIILSDQTPKSGLNHPFHLHGHAFYVLGMGQYAAGQTAQDLLNSLKSNVSSVSPAPVLKDTIAVPSGGYAIIKFRPKNPGYWFLHCHFLYHVATGMSVVLQVGETSDYPPTPDGFPKCGSFTPPVNTN
modifications: Reticulitermes flavipes; amino acid sequence Laccase Lacc-12
- Results of RfLacB isoform compared with RfLacA against all substrates [6]: statistically indistinguishable results to RfLacA
- oxidation of ABTS and syringaldazine [6]: unable to oxidize
